From patent US9533985B2, “Sulfonamide derivative and medicinal use thereof” (EA Pharma Co., Ltd., priority 2012, dated 2017)

biological target: α4β7 integrin (Homo sapiens (Human), UniProt P13612+P26010); test: MAdCAM-1/α4β7 integrin binding inhibitory activity evaluation test in the presence of serum (2); format: cell-based; settings: RPMI-8866 cells binding to mouse MAdCAM-1/Fc, same manner as Test (3), read-out: α4β7 Rank of activity with serum added
Description: The ability of test substances to inhibit the binding of a human B cell line, RPMI-8866, which is known to express α4β7 integrin, to MAdCAM-1 was measured.
To 96-well microtiter plates, recombinant mouse MAdCAM-1/Fc (R&D systems) solution (1 μg/mL) diluted with buffer A (carbonate buffer, pH 9.6) was added at 50 μL/well, followed by incubation at 4° C. overnight. After washing once with PBS, Block Ace (Snow Brand Milk Products Company, Limited) was added at 150 μL/well, followed by incubation at room temperature for 2 hours. After removal, washing was conducted once with PBS.
100 μL of each test substance diluted with a binding buffer (DMEM containing 40 mM HEPES, 0.2% BSA, and 4 mM MnCl2) to various concentrations and 100 μL of RPMI-8866 cells (2×10^6 cell/mL) were added to plates coated with MAdCAM-1/Fc (5×10^5 cells/well) with human serum being contained at a final concentration of 50%, followed by incubation at 30° C. for 15 minutes to 60 minutes. After the cells were bound to each well, unbound cells were removed by washing with PBS. To the plates, buffer C (PBS containing 1.5% Triton X-100) was added at 50 μL/well to lyse the bound RPMI-8866 cells. To 30 μL of the cell lysate, 30 μL of Substrate Buffer (Promega, CytoTox 96 Non-Radioactive Cytotoxicity Assay) was added, and the reaction was allowed to proceed at room temperature in a dark place for 30 minutes. To each well, 30 μL of Stop Solution (Promega, CytoTox 96 Non-Radioactive Cytotoxicity Assay) was added, and the absorbance at 490 nm was measured by using a plate reader. Here, by the obtained absorbance, the activity of the lactate dehydrogenase (LDH) dissolved into the supernatant of each well was detected. In other words, the absorbance was proportional to the number of the RPMI-8866 cells bound to MAdCAM-1 and remaining on the plate. The test was duplicated. The binding ratios of the cells at various concentrations were determined, with the absorbance of a well containing no test substance taken as 100%. Then, the concentration IC50, at which 50% binding inhibition was achieved, was calculated.
The MAdCAM-1/α4β7 integrin binding inhibitory activity in the presence of serum was measured in the same manner as in Test (3) described above. […] The VCAM-1/α4β1 integrin binding inhibitory activity evaluation test and the MAdCAM-1/α4β7 integrin binding inhibitory activity evaluation test were carried out according to the methods described in Tests (1) and (2) described above.

Sequence of α4β7 integrin (P13612 34-1032): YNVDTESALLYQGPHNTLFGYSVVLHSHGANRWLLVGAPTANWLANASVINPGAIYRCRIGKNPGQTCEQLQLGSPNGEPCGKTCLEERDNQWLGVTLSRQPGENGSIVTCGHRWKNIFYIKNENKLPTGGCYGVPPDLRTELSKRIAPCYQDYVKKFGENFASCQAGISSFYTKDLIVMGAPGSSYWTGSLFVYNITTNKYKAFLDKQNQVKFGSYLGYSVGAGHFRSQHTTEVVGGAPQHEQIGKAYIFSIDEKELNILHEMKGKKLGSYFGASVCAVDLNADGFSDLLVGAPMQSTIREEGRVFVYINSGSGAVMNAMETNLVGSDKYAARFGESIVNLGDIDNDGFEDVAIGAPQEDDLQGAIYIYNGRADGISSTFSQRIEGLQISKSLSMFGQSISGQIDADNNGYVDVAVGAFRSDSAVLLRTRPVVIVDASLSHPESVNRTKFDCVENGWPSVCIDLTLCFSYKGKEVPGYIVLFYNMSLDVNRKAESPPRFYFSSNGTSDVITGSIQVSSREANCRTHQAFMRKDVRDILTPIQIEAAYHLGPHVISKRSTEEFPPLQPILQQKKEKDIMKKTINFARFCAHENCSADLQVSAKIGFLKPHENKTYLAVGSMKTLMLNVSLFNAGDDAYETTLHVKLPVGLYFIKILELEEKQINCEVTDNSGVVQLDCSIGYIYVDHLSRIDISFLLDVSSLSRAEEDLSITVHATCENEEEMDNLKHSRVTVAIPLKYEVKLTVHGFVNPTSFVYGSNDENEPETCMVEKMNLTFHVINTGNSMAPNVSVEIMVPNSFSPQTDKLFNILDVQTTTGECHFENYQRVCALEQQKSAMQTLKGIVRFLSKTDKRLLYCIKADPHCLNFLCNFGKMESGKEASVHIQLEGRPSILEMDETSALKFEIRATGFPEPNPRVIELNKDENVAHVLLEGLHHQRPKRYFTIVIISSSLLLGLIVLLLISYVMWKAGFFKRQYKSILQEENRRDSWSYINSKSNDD
Sequence of α4β7 integrin (P26010 20-798): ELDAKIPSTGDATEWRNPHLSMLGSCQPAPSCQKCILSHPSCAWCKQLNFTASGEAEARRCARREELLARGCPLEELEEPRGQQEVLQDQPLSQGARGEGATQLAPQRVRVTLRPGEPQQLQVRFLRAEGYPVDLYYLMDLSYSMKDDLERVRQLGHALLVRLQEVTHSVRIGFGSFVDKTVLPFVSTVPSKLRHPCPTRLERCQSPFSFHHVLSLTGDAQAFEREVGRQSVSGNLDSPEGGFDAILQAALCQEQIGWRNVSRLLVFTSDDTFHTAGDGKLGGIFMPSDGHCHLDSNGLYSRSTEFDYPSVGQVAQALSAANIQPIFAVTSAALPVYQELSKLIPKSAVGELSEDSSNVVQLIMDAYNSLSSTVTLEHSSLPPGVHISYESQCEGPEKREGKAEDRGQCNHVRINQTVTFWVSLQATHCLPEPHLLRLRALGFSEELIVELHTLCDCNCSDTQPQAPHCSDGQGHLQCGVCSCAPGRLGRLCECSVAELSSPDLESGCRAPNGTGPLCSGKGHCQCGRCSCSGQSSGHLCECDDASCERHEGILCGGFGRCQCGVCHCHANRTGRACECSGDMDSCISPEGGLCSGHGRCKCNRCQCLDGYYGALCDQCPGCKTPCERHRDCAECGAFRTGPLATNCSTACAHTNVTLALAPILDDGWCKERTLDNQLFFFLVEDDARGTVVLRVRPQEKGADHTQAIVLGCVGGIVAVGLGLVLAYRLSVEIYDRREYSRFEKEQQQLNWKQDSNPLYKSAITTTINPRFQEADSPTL

Row | Structure (SMILES) | IC50 [nM]
1 | CCNC(=O)c1ccc(S(=O)(=O)Nc2cc(F)c(C(=O)N[C@@H](Cc3ccc(-n4c(=O)cc(C(C)C)n(C)c4=O)cc3)C(=O)O)c(F)c2)cc1 [Example 156, N-{4-[({4-[(Ethylamino)carbonyl]phenyl}sulfonyl)amino]-2,6-difluorobenzoyl}-4-(4-isopropyl-3-methyl-2,6-dioxo-3,6-dihydropyrimidin-1(2H)-yl)-L-phenylalanine] | 10 to 50
2 | Cc1cc(C(=O)NC(C)(C)C)ccc1S(=O)(=O)Nc1cc(F)c(C(=O)N[C@@H](Cc2ccc(-n3c(=O)ccn(C)c3=O)cc2)C(=O)O)c(F)c1 [Example 158, N-{4-[({4-[(tert-Butylamino)carbonyl]-2-methylphenyl}sulfonyl)amino]-2,6-difluorobenzoyl}-4-(3-methyl-2,6-dioxo-3,6-dihydropyrimidin-1(2H)-yl)-L-phenylalanine] | ≤ 10
3 | Cn1ccc(=O)n(-c2ccc(C[C@H](NC(=O)c3c(F)cc(NS(=O)(=O)c4ccc(-c5ncccn5)cn4)cc3F)C(=O)O)nc2)c1=O [Example 159, N-(2,6-Difluoro-4-{[(5-pyrimidin-2-yl-pyridin-2-yl)sulfonyl]amino}benzoyl)-3-[5-(3-methyl-2,6-dioxo-3,6-dihydropyrimidin-1(2H)-yl)pyridin-2-yl]-L-alanine] | 10 to 50
4 | Cn1ccc(=O)n(-c2ccc(C[C@H](NC(=O)c3c(F)cc(NS(=O)(=O)c4ccc(-n5cccc5)cn4)cc3F)C(=O)O)cc2)c1=O [Example 162, N-[2,6-Difluoro-4-({[5-(1H-pyrrol-1-yl)pyridin-2-yl]sulfonyl}amino)benzoyl]-4-(3-methyl-2,6-dioxo-3,6-dihydropyrimidin-1(2H)-yl)-L-phenylalanine] | 10 to 50
5 | Cn1c(=O)n(-c2ccc(C[C@H](NC(=O)c3ccc(NS(=O)(=O)c4ccc(-c5cncnc5)cn4)cc3F)C(=O)O)cc2)c(=O)c2ccncc21 [Example 163, N-(2-Fluoro-4-{[(5-pyrimidin-5-yl-pyridin-2-yl)sulfonyl]amino}benzoyl)-4-(1-methyl-2,4-dioxo-1,4-dihydropyrido[3,4-d]pyrimidin-3(2H)-yl)-L-phenylalanine] | 10 to 50
6 | Cn1c(=O)n(-c2ccc(C[C@H](NC(=O)c3c(F)cc(NS(=O)(=O)c4ccc(C(=O)NC5CCCC5)cc4)cc3F)C(=O)O)cc2)c(=O)c2ccncc21 [Example 166, N-{4-[({4-[(Cyclopentylamino)carbonyl]phenyl}sulfonyl)amino]-2,6-difluorobenzoyl}-4-(1-methyl-2,4-dioxo-1,4-dihydropyrido[3,4-d]pyrimidin-3(2H)-yl)-L-phenylalanine] | 10 to 50
7 | Cn1c(=O)n(-c2ccc(C[C@H](NC(=O)c3c(F)cc(NS(=O)(=O)c4ccc(C(=O)NC(C)(C)C)cc4)cc3F)C(=O)O)cc2)c(=O)c2ccncc21 [Example 168, N-{4-[({4-[(tert-Butylamino)carbonyl]phenyl}sulfonyl)amino]-2,6-difluorobenzoyl}-4-(1-methyl-2,4-dioxo-1,4-dihydropyrido[3,4-d]pyrimidin-3(2H)-yl)-L-phenylalanine] | ≤ 10
8 | Cn1ccc(=O)n(-c2ccc(C[C@H](NC(=O)c3c(F)cc(NS(=O)(=O)c4ccc(C(=O)NC(C)(C)C)nc4)cc3F)C(=O)O)cc2)c1=O [Example 173, N-{4-[({6-[(tert-Butylamino)carbonyl]pyridin-3-yl}sulfonyl)amino]-2,6-difluorobenzoyl}-4-(3-methyl-2,6-dioxo-3,6-dihydropyrimidin-1(2H)-yl)-L-phenylalanine] | ≤ 10
9 | Cc1cn(C)c(=O)n(-c2ccc(C[C@H](NC(=O)c3ccc(NS(=O)(=O)c4ccc(C(=O)NC(C)(C)C)nc4)cc3F)C(=O)O)cc2)c1=O [Example 175, N-{4-[({6-[(tert-Butylamino)carbonyl]pyridin-3-yl}sulfonyl)amino]-2-fluorobenzoyl}-4-(3,5-dimethyl-2,6-dioxo-3,6-dihydropyrimidin-1(2H)-yl)-L-phenylalanine] | 10 to 50

Continued, values first:

Row | IC50 [nM] | Structure (SMILES)
10 | 10 to 50 | CCNC(=O)c1ccc(S(=O)(=O)Nc2cc(F)c(C(=O)N[C@@H](Cc3ccc(-n4c(=O)cc(C)n(C)c4=O)cc3)C(=O)O)c(F)c2)cc1 [Example 155, 4-(3,4-Dimethyl-2,6-dioxo-3,6-dihydropyrimidin-1(2H)-yl)-N-{4-[({4-[(ethylamino)carbonyl]phenyl}sulfonyl)amino]-2,6-difluorobenzoyl}-L-phenylalanine]
11 | 10 to 50 | Cn1ccc(=O)n(-c2ccc(C[C@H](NC(=O)c3c(F)cc(NS(=O)(=O)c4ccc(C(=O)NCC5CC5)cc4)cc3F)C(=O)O)cc2)c1=O [Example 157, N-(4-{[(4-{[(Cyclopropylmethyl)amino]carbonyl}phenyl)sulfonyl]amino}-2,6-difluorobenzoyl)-4-(3-methyl-2,6-dioxo-3,6-dihydropyrimidin-1(2H)-yl)-L-phenylalanine]
12 | 10 to 50 | CCNC(=O)c1ccc(S(=O)(=O)Nc2cc(F)c(C(=O)N[C@@H](Cc3ccc(-n4c(=O)ccn(C)c4=O)cc3)C(=O)O)c(F)c2)cn1 [Example 164, N-{4-[({6-[(Ethylamino)carbonyl]pyridin-3-yl}sulfonyl)amino]-2,6-difluorobenzoyl}-4-(3-methyl-2,6-dioxo-3,6-dihydropyrimidin-1(2H)-yl)-L-phenylalanine]
13 | ≤ 10 | Cn1ccc(=O)n(-c2ccc(C[C@H](NC(=O)c3c(F)cc(NS(=O)(=O)c4ccc(C(=O)NC5CCCC5)cc4)cc3F)C(=O)O)cc2)c1=O [Example 165, N-{4-[({4-[(Cyclopentylamino)carbonyl]phenyl}sulfonyl)amino]-2,6-difluorobenzoyl}-4-(3-methyl-2,6-dioxo-3,6-dihydropyrimidin-1(2H)-yl)-L-phenylalanine]
14 | ≤ 10 | Cn1ccc(=O)n(-c2ccc(C[C@H](NC(=O)c3c(F)cc(NS(=O)(=O)c4ccc(C(=O)NC(C)(C)C)cc4)cc3F)C(=O)O)cc2)c1=O [Example 167, N-{4-[({4-[(tert-Butylamino)carbonyl]phenyl}sulfonyl)amino]-2,6-difluorobenzoyl}-4-(3-methyl-2,6-dioxo-3,6-dihydropyrimidin-1(2H)-yl)-L-phenylalanine]
15 | 10 to 50 | Cn1ccc(=O)n(-c2ccc(C[C@H](NC(=O)c3c(F)cc(NS(=O)(=O)c4ccc(C(=O)NC5CCCCC5)cc4)cc3F)C(=O)O)cc2)c1=O [Example 169, N-{4-[({4-[(Cyclohexylamino)carbonyl]phenyl}sulfonyl)amino]-2,6-difluorobenzoyl}-4-(3-methyl-2,6-dioxo-3,6-dihydropyrimidin-1(2H)-yl)-L-phenylalanine]
16 | ≤ 10 | CCC(CC)NC(=O)c1ccc(S(=O)(=O)Nc2cc(F)c(C(=O)N[C@@H](Cc3ccc(-n4c(=O)ccn(C)c4=O)cc3)C(=O)O)c(F)c2)cc1 [Example 170, N-(4-{[(4-{[(1-Ethylpropyl)amino]carbonyl}phenyl)sulfonyl]amino}-2,6-difluorobenzoyl)-4-(3-methyl-2,6-dioxo-3,6-dihydropyrimidin-1(2H)-yl)-L-phenylalanine]
17 | 10 to 50 | Cn1ccc(=O)n(-c2ccc(C[C@H](NC(=O)c3c(F)cc(NS(=O)(=O)c4ccncc4)cc3F)C(=O)O)cc2)c1=O [Example 171, N-{2,6-Difluoro-4-[(pyridin-4-yl-sulfonyl)amino]benzoyl}-4-(3-methyl-2,6-dioxo-3,6-dihydropyrimidin-1 (2H)-yl)-L-phenylalanine]
18 | ≤ 10 | Cn1ccc(=O)n(-c2ccc(C[C@H](NC(=O)c3c(F)cc(NS(=O)(=O)c4ccc(C(=O)NCC5CCOCC5)cc4)cc3F)C(=O)O)cc2)c1=O [Example 172, N-(2,6-Difluoro-4-{[(4-{[(tetrahydro-2H-pyran-4-yl-methyl)amino]carbonyl}phenyl)sulfonyl]amino}benzoyl)-4-(3-methyl-2,6-dioxo-3,6-dihydropyrimidin-1(2H)-yl)-L-phenylalanine]
19 | 10 to 50 | Cn1ccc(=O)n(-c2ccc(C[C@H](NC(=O)c3c(F)cc(NS(=O)(=O)c4ccc(C(=O)C5CC5)cc4)cc3F)C(=O)O)cc2)c1=O [Example 174, N-[4-({[4-(Cyclopropylcarbonyl)phenyl]sulfonyl}amino)-2,6-difluorobenzoyl]-4-(3-methyl-2,6-dioxo-3,6-dihydropyrimidin-1(2H)-yl)-L-phenylalanine]
20 | ≤ 10 | CNCc1ccc(S(=O)(=O)Nc2cc(F)c(C(=O)N[C@@H](Cc3ccc(-n4c(=O)ccn(C)c4=O)cc3)C(=O)O)c(F)c2)cc1 [Example 176, N-{2,6-Difluoro-4-[({4-[(methylamino)methyl]phenyl}sulfonyl)amino]benzoyl}-4-(3-methyl-2,6-dioxo-3,6-dihydropyrimidin-1(2H)-yl)-L-phenylalanine]
